Several values for one entry are separate records, joined by “and”; a condition that tells them apart may be missing. Equal entries are not always repeated. Entries after “also recorded” stand apart in the source; their conditions may differ. Where two headings read alike, the source gives them in different places.
Key:
[1] = molecular target: T1, 17X-PTDH-R301A (Stutzerimonas stutzeri (Pseudomonas stutzeri), UniProt O69054, D13E/E130K/I150F/M26I/Q132R/Q137R/R301A/V71I, form not given); assay type: biochemical, Pseudomonas stutzeri WM88; conditions: for Rescue of activity of the R301A mutant: exogenous reagent, unsuccessful ones tested at 20–100 mM depending on solubility; for k rescue/ K m, phosphite: R301A with saturating rescue reagent; for EC50: pH 7.25, 25°C, read-out: K R (concentration of rescue reagent at which half-maximal rate was observed); for K m, phosphite (apparent): rescue agent and NAD+ saturating (>10 K R)
[2] = molecular target: H292A mutant of wt-PTDH (Stutzerimonas stutzeri, UniProt O69054, H292A); assay type: biochemical, Pseudomonas stutzeri WM88; conditions: 10–100 mM reagent
[3] = molecular target: H292G mutant of wt-PTDH (Stutzerimonas stutzeri, UniProt O69054, H292G); assay type: biochemical, Pseudomonas stutzeri WM88; conditions: 10–100 mM reagent
[4] = molecular target: 17X-PTDH; assay: Sulfite inhibition of 17X-PTDH; assay type: biochemical, Pseudomonas stutzeri WM88; conditions: competitive vs phosphite, 4 mM NAD+, pH 7.25, read-out: K is
Protocol: Reactions were performed in 100 mM MOPS (pH 7.25) at saturating concentrations of 4 mM NAD^+. Sodium sulfite was adjusted to the desired concentration by serial dilution from a 0.5 M stock solution. Sulfite concentration was adjusted to 0, 50, 100, 150, 200 or 300 µM for R301A or 0, 0.5, 1, 5, 10 or 20 µM for 17X-PTDH. An experiment was also performed with 17X-PTDH-R301A and saturating concentrations of 300 mM aminoguanidine, with sulfite concentrations of 0, 100, 200, 300, 400 or 500 µM. The reaction was initiated by addition of PTDH (0.1 µM final concentration, 5 µM for R301A). At each concentration of inhibitor, phosphite concentration was varied. The data was analyzed in GraFit 7.0 [28] using the equation for competitive inhibition (Equation 3) to fit all of the data, where I is the inhibitor concentration and K is the dissociation constant for a competitive inhibitor [29]. [drawing 5] (3)

[5] = molecular target: T1, 17X-PTDH-R301A; assay type: biochemical, Pseudomonas stutzeri WM88; conditions: pH 7.25, read-out: K is
[6] = parameters: method as in earlier work; conditions: cited from earlier work
[7] = molecular target: 17X-PTDH; assay: Phosphite dissociation constant for 17X-PTDH by the method of Klinman and Matthews; assay type: biochemical, Pseudomonas stutzeri WM88; conditions: calculated from ^D(V/K), ^DV and K m,Phosphite
[8] = tested on: R301A; assay: Phosphite Kd and Km for R301A; assay type: biochemical, Pseudomonas stutzeri WM88
[9] = molecular target: T1, 17X-PTDH-R301A; assay type: biochemical, Pseudomonas stutzeri WM88; conditions: saturating rescue reagent (>20 K R), deuterated vs protiated phosphite, pH 7.25, 25°C
[10] = molecular target: T1, 17X-PTDH-R301A; assay type: biochemical, Pseudomonas stutzeri WM88
[11] = Expected proportion of aminoguanidine in unprotonated and protonated states at various pH values; assay type: physicochemical
[12] = wt enzyme, pH 7.25; ref (1) Relyea et al., 2005; cited from earlier work
[13] = wt enzyme, pH 7.25, cited from earlier work
[14] = R301A, k cat,apparent at saturating rescue reagent, 100 mM MOPS pH 7.25, 25°C, 4 mM NAD+
[15] = 0–2.0 mM aminoguanidine, 1 M phosphite, 4 mM NAD+, first experiment
[16] = repeat with a different batch of enzyme and reagents

T1 sequence (O69054 1-329 D13E/E130K/I150F/M26I/Q132R/Q137R/R301A/V71I): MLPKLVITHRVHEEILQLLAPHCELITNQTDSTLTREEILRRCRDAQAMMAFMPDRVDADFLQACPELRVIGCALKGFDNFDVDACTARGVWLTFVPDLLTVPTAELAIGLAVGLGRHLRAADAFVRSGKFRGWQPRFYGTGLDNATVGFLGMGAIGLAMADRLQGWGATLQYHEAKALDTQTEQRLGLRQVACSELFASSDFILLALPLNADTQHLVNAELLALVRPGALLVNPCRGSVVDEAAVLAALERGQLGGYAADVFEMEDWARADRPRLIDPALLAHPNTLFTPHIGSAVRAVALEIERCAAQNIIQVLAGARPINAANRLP

Molecule: CN [methylamine]
- Rescue of activity of the R301A mutant [1]: not observed
- Rescue of activity of H292A mutant [2]: no activity
- Rescue of activity of H292G mutant [3]: no activity

Molecule: O=S(O)O [sulfite]
- Ki [4]: 0.00031 mM
- Ki ([5]; R301A + saturating 300 mM aminoguanidine): 0.078 mM
- Ki ([5]; R301A, competitive vs phosphite, 4 mM NAD+): 0.13 mM

Molecule: CCNC(=N)N [ethylguanidine]
- k rescue [1, 14]: 0.52 (0.13) s^−1
- [drawing 6] (Brønsted plot ordinate; uses K R corrected for free base concentration at pH 7.25) ([1]; R301A, pH 7.25): 6.1 (0.2)
- Rescue of activity of the R301A mutant [1]: markedly improved
- pK a (conjugate acid of rescue reagent) [6]: 13.3

Molecule: phosphite
- Kd [7]: 0.023 ± 0.006 mM
- K m of phosphite ([8]; R301A, pH 8.0, no rescue agent): 300 ± 35 mM
- Kd ([8]; calculated from ^D(V/K), ^DV and K m,Phosphite): 13 ± 2 mM

Molecule: c1c[nH]cn1 [imidazole]
- Rescue of activity of H292A mutant [2]: no activity; also recorded: failed to result in any activity
- Rescue of activity of H292G mutant [3]: no activity; also recorded: failed to result in any activity

Molecule: CN=C(N)N [methylguanidine]
- k rescue/ K m, phosphite ([1]; pH 7.25): 5.2 (1.1) M^−1 s^−1
- k rescue [1, 14]: 0.68 (0.04) s^−1
- [drawing 6] (Brønsted plot ordinate; uses K R corrected for free base concentration at pH 7.25) ([1]; R301A, pH 7.25): 7.2 (0.1)
- EC50 ([1]; R301A): 55 mM
- K m, phosphite (apparent) ([1]; R301A, pH 7.25): 130 (30) mM
- Rescue of activity of the R301A mutant [1]: markedly improved
- ^D k cat [9]: 1.4 (0.1)
- ^D k cat/K m [9]: 1.6 (0.5)
- pK a (conjugate acid of rescue reagent) [6]: 13.4

Molecule: c1nc[nH]n1 [1,2,4-triazole]
- Rescue of activity of H292A mutant [2]: no activity; also recorded: failed to result in any activity
- Rescue of activity of H292G mutant [3]: no activity; also recorded: failed to result in any activity

Molecule: N=C(N)NC(N)=O [N-guanylurea]
- [drawing 6] (Brønsted plot ordinate; uses K R corrected for free base concentration at pH 7.25) ([1]; pH 7.25): −2.9 (0.2)
- k rescue ([1]; pH 7.25): 0.42 (0.07) s^−1
- pK a (conjugate acid of rescue reagent) [6]: 3.9

Molecule: CC(=N)N [acetamidine]
- k rescue/ K m, phosphite ([1]; pH 7.25): 6.7 (1.1) M^−1 s^−1
- k rescue [1, 14]: 0.86 (0.08) s^−1
- [drawing 6] (Brønsted plot ordinate; uses K R corrected for free base concentration at pH 7.25) ([1]; R301A, pH 7.25): 6.3 (0.1)
- EC50 ([1]; R301A): 63 mM
- K m, phosphite (apparent) ([1]; R301A, pH 7.25): 130 (20) mM
- Rescue of activity of the R301A mutant [1]: markedly improved
- ^D k cat [9]: 1.5 (0.1)
- ^D k cat/K m [9]: 1.8 (0.6)
- pK a (conjugate acid of rescue reagent) [6]: 12.5

Molecule: CCN [ethylamine]
- Rescue of activity of the R301A mutant [1]: not observed

Molecule: N=C(N)NN [aminoguanidine]
- k rescue/ K m, phosphite ([1]; pH 7.25): 180 (10) M^−1 s^−1
- k rescue [1, 14]: 1.4 (0.1) s^−1
- [drawing 6] (Brønsted plot ordinate; uses K R corrected for free base concentration at pH 7.25) ([1]; R301A, pH 7.25): 5.3 (0.1)
- EC50 ([1]; R301A): 32 mM
- K m, phosphite (apparent) ([1]; R301A, pH 7.25): 7.4 (0.5) mM
- Activity with saturating rescue agent relative to wild-type activity ([1]; R301A, saturating substrate and rescue agent): about 40%
- Rescue of activity of the R301A mutant [1]: markedly improved
- ^D k cat [9]: 2.1 (0.1)
- ^D k cat/K m [9]: 3.1 (0.3)
- Ratio of slopes of k cat,apparent vs rescue agent concentration, pH 7.5 : pH 7.0 [10, 15]: 1.2±0.1
- Ratio of slopes of k cat,apparent vs rescue agent concentration, pH 8.0 : pH 7.0 [10, 15]: 3.7±0.3
- Ratio of slopes, pH 7.5 : pH 7.0 [10, 16]: 1.6±0.1
- Ratio of slopes, pH 8.0 : pH 7.0 [10, 16]: 3.0±0.1
- Ratio of concentrations of reagent (pH 7.5 : pH 7), protonated [11]: 1.0
- Ratio of concentrations of reagent (pH 7.5 : pH 7), unprotonated [11]: 3.2
- Ratio of concentrations of reagent (pH 8 : pH 7), protonated [11]: 1.0
- Ratio of concentrations of reagent (pH 8 : pH 7), unprotonated [11]: 10.0
- Protonated (RNH3^+) proportion ([11]; pH 7.0): 99.99%
- Unprotonated (RNH2) proportion ([11]; pH 7.0): 0.01%
- Protonated (RNH3^+) proportion ([11]; pH 7.5): 99.97%
- Unprotonated (RNH2) proportion ([11]; pH 7.5): 0.03%
- Protonated (RNH3^+) proportion ([11]; pH 8.0): 99.90%
- Unprotonated (RNH2) proportion ([11]; pH 8.0): 0.10%
- pK a (conjugate acid of rescue reagent) [6]: 11.0

Molecule: NC(N)=S [thiourea]
- Rescue of activity of the R301A mutant [1]: not observed

Molecule: NC(N)=O [urea]
- Rescue of activity of the R301A mutant [1]: not observed

Molecule: N=C(N)N [guanidine]
- k rescue/ K m, phosphite ([1]; pH 7.25): 41 (4) M^−1 s^−1
- k rescue [1, 14]: 1.2 (0.1) s^−1
- [drawing 6] (Brønsted plot ordinate; uses K R corrected for free base concentration at pH 7.25) ([1]; R301A, pH 7.25): 8.1 (0.1)
- EC50 ([1]; R301A): 18 mM
- K m, phosphite (apparent) ([1]; R301A, pH 7.25): 30 (3) mM
- Rescue of activity of the R301A mutant [1]: markedly improved
- ^D k cat [9]: 1.8 (0.1)
- ^D k cat/K m [9]: 2.3 (0.1)
- pK a (conjugate acid of rescue reagent) [6]: 13.6

Molecule: CCCCN [butylamine, n-butylamine]
- Rescue of activity of the R301A mutant [1]: not observed

Molecule: NC(=O)NO [hydroxyurea]
- Rescue of activity of the R301A mutant [1]: not observed

B1: wt enzyme: wild-type phosphite dehydrogenase from Pseudomonas stutzeri WM88 (protein, UniProt O69054 1-336, looked up)
Phosphonate dehydrogenase: MLPKLVITHRVHDEILQLLAPHCELMTNQTDSTLTREEILRRCRDAQAMMAFMPDRVDADFLQACPELRVVGCALKGFDNFDVDACTARGVWLTFVPDLLTVPTAELAIGLAVGLGRHLRAADAFVRSGEFQGWQPQFYGTGLDNATVGILGMGAIGLAMADRLQGWGATLQYHEAKALDTQTEQRLGLRQVACSELFASSDFILLALPLNADTQHLVNAELLALVRPGALLVNPCRGSVVDEAAVLAALERGQLGGYAADVFEMEDWARADRPRLIDPALLAHPNTLFTPHIGSAVRAVRLEIERCAAQNIIQVLAGARPINAANRLPKAEPAAC
- substrate KIE on kcat [12]: 2.1
- solvent isotope effect (SIE) on k cat [13]: 1.55 and 1.55±0.07
- observed combined SIE and substrate KIE on kcat ([13]; ref (1) Relyea et al., 2005): 2.48
